# Experimental data: patent US20060269924A1, “Modulation of telomere-initiated cell signaling” (TRUSTEES OF BOSTON UNIVERSITY, priority 2003, published 2006)
# {P} = phosphate
# Key:
# R2F fibroblasts = assay: SA-β-Gal staining, R2F fibroblasts; format: cell-based, human; conditions: 40 μM, 1 week
# Protocol: (§1) FIG. 12a: Immunoblot analysis of p53DD and cdk4^R24C expression. Cells were collected for protein analysis by western blot using 30 μg total protein and probed for total p53 and cdk4. Lanes 1, 2, 3 and 4 contain protein samples from R2F, R2F (p53DD), R2F (cdk4^R24C) and R2F (p53DD/cdk4^R24C) fibroblasts, respective. β-actin was used as a loading control. FIG. 12b: Contribution of p53 and pRb pathways to T-oligo-induced SA-β-Gal activity. R2F fibroblasts and derived transductants were treated with diluent or 40 μM T-oligo for one week and then assayed for SA-β-Gal activity. FIG. 12c: Quantitative analysis of SA-β-Gal positive cells. Cells expressing SA-β-Gal activity were counted and presented as percentage of total cells in the cultures. Averages and standard deviations were calculated from 3 representative fields from each of 3 independent experiments.
# Cells were treated once with diluent alone, 40 μM T-oligo or 40 μM complementary oligo for 1 week without re-feeding. Cells were then fixed for 3-5 minutes in 2% formaldehyde/0.2% glutaraldehyde and incubated at 37° C. […]
# (§2) Cells were treated with either diluent or 40 μM T-oligo for 1 week and then assessed for SA-β-Gal activity. […]
# [1] = tested on: p53, E2F1 transcription factor; assay: Western analysis of p53 and E2F1 in Jurkat cells; format: cell-based, human; conditions: by 24 hours after addition
# p53DD R2F fibroblasts = assay: SA-β-Gal staining, p53DD R2F fibroblasts; format: cell-based, human; conditions: 40 μM, 1 week
# Protocol: as §1
# R2F newborn dermal fibroblasts and derived p53DD, […] and p53DD/cdk4^R24C transductants (a generous gift from Dr. James G. Rheinwald of Harvard Medical School) lack a functional p53 pathway, pRb pathway, and both pathways respectively.
# Cells were treated once with diluent alone, 40 μM T-oligo or 40 μM complementary oligo for 1 week without re-feeding. […]
# as §2
# [2] = tested on: human fibrosarcoma HT-1080 cells; assay: SA-β-Gal staining, HT-1080 cells; format: cell-based
# Protocol: FIG. 13a: Exposure to T-oligo increases SA-β-Gal activity. HT-1080 cells were treated for 4 days with diluent alone or 40 μM T-oligo or the complementary control oligo, then stained and assayed for SA-β-Gal activity. FIG. 13b: Quantitative analysis of SA-β-Gal positive cells. Cells expressing SA-β-Gal activity were counted and presented as percentage of total cells in the cultures. Averages and standard deviations were calculated from 3 representative fields from each of 3 independent experiments. FIG. 13c: Effect of T-oligo on cell proliferation. Cells were treated for 4 days as in FIG. 12 and assayed for DNA synthesis by BrdU incorporation. FIG. 13d: Quantitative analysis of BrdU incorporation. Dark black nuclei indicate BrdU incorporated into nuclear DNA. BrdU positive cells were calculated and presented as percentage of total cells in the cultures. Averages and standard deviations were calculated from 3 representative fields from each of 3 independent experiments. FIG. 13e: Effect of T-oligo on pRb phosphorylation. Cells were treated as in FIG. 13a and were then collected for protein analysis by western blot using 30 μg total protein and probed for pRb-ser780*, ser795* and ser807/811* (pRb phosphorylated at serine 780, serine 795 and serine 807/811 respectively). Lanes D, T and C contain protein samples from cells treated with diluent, T-oligo and complementary oligo respectively. β-actin was used as a loading control.
# Parallel cultures were treated as described in FIG. 13a. Cells were then washed once with PBS and refed with complete medium without additional treatment for 24 hours or 48 hours. FIG. 14a: SA-β-Gal activity. Cells were stained for SA-β-Gal activity. […]
# TRF2^DN has been reported to induce a senescent phenotype in human fibrosarcoma HT-1080 cells. To determine whether exposure to the telomere 3′ overhang DNA (T-oligo) also induces senescence in these cells, HT-1080 cells (American Type Culture Collection; Manassas, Va.) were treated with either diluent alone, T-oligo or the complementary oligo as a control, for 4 days and then assessed for SA-β-Gal activity. […]
substance,measurement,setting,value
"pGTTAGGGTTAG (DNA, 5' {P}, backbone not given here; listed as Homo sapiens) [Oligonucleotide 11mer-1]",SA-β-Gal positive cells,R2F fibroblasts,65±7%
same,level of the E2F1 transcription factor,[1],concomitant increase
same,p53 level (Western analysis),[1],increase
same,SA-β-Gal positive cells,p53DD R2F fibroblasts,45±4%
same,SA-β-Gal activity after removal of oligo,"[2]; HT-1080, 4 days 40 μM, then 1 and 2 days fresh medium without oligonucleotide",increase in SA-β-Gal activity
same,SA-β-Gal positive cells,"[2]; HT-1080 cells, 40 μM, 4 days",80±7%
